Measurements reported in US4687775A, “2-[(Imidazo[1,2-a]pyridinylmethyl)sulfinyl]-1H-benzimidazoles” (G. D. Searle & Co., priority 1986, dated 1987).

These molecules were tested on gastric acid secretion in gastric fistula beagle dogs (assay: Inhibition of Gastric Acid Secretion in Gastric Fistula Beagle Dogs). Details: 3 mg/kg dose; i.d. (intraduodenal); histamine-stimulated secretion, four-hour period.
Assay type: in vivo

| Structure (SMILES) | Gastric-Fistula Beagle % Inhibition |
| --- | --- |
| [O-][S+](Cc1cccn2ccnc12)c1nc2ccccc2[nH]1 (centres unmarked) [Example 3, 2-[(imidazo[1,2-a]pyridin-8-ylmethyl)sulfinyl]-1H-benzimidazole 1/8 hydrate] | 57% |
| Cc1cn2cccc(C[S+]([O-])c3nc4ccccc4[nH]3)c2n1 (centres unmarked) [Example 5] | 16% |

What follows are molecules tested against T1, (H^+ +K^+)-ATPase (Canis lupus familiaris, UniProt P50996) (assay: Inhibition of (H^+ +K^+)-ATPase from Canine Gastric Mucosa). Details: canine gastric mucosa microsomes; pH 6.0; 30 min preincubation with compound at 37°; K^+-stimulated minus basal activity.
T1 construct: (H^+ +K^+)-ATPase obtained from canine gastric mucosa; from tissue; host or cells: glandular gastric mucosa of mongrel dogs (antral and cardiac regions removed), microsomes from the 15%-30% sucrose interface, lyophilized
T1 sequence (P50996 2-1034 limits assumed): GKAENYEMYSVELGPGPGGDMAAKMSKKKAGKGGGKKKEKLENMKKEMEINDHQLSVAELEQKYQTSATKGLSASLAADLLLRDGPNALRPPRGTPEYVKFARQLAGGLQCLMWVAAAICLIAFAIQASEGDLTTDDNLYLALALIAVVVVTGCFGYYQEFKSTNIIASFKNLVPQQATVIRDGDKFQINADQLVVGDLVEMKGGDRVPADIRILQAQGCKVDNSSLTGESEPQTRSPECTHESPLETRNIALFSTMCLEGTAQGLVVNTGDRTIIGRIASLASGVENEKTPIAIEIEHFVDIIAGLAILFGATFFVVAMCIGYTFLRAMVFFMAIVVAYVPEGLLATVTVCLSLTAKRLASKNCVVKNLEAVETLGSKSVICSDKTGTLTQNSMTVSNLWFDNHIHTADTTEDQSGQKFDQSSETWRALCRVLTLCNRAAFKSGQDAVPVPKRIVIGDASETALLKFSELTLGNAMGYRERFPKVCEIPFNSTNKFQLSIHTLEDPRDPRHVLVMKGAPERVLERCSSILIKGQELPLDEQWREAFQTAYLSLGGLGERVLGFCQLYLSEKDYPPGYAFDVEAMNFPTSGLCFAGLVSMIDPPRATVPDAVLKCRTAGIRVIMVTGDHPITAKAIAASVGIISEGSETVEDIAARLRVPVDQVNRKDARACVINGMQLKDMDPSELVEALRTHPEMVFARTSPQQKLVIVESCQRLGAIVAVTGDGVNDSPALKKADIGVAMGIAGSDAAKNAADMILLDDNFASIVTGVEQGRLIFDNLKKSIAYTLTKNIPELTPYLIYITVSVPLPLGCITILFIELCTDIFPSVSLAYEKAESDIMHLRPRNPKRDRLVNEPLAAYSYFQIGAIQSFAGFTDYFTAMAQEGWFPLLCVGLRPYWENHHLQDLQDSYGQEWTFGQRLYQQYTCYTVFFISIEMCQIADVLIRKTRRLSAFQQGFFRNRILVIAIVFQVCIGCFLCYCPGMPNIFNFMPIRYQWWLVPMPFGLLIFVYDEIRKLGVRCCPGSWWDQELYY
T1 sequence (P33704 whole entry partner): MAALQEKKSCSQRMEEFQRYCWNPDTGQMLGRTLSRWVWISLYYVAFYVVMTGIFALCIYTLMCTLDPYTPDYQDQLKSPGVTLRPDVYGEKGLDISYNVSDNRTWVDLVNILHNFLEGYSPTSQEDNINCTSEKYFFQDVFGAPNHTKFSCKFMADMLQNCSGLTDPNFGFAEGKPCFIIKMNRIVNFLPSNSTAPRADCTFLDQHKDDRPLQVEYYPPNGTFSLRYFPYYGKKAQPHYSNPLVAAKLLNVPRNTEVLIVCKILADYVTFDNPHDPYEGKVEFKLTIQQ
Assay type: biochemical, canine (mongrel dogs)
Method: Inhibition of (H^+ +K^+)-ATPase from Canine Gastric Mucosa
Mongrel dogs weighing 15 to 25 kilograms were fasted for twenty-four hours, with water provided ad libitum. The animals were anesthetized with pentobarbital and the stomachs were removed. Subsequent tissue manipulations and subcellular fractionations were performed at 0° to 4° C. After the stomachs were cut open and rinsed with tap water, the antral and cardiac regions were removed and the remaining tissue was rinsed three times in saline. The glandular mucosa was removed mechanically, chopped finely in a medium containing 10 mM Tris hydrochloride (pH 7.4) and 250 mM sucrose, and homogenized. The homogenate was centrifuged at 20,000×g for twenty minutes and the pellet discarded. The supernatant was then centrifuged at 150,000×g for ninety minutes and the supernatant discarded. The pellet was resuspended in the Tris-HCl/sucrose medium by homogenization. Part (2 ml) of the resultant microsomal suspension was layered onto a step gradient consisting of 9 ml of 15% sucrose above 12 ml of 30% sucrose, each sucrose solution being buffered with 10 mM Tris hydrochloride (pH 7.4) containing 0.01% sodium azide. The microsomes retained at the 15%-30% sucrose interface, after centrifugation at 250,000×g for sixty minutes, were used as the source of (H^+ +K^+)-ATPase. Microsomal preparations were lyophilized, a process that assured potassium ion permiability, and stored at -10° until used.
(H^+ K^+)-ATPase activity for each test compound was determined, in duplicate, by measuring the release of inorganic phosphate, which was assayed according to the method of J. ChandraRajan and L. Klein. Anal. Biochem., 72, 407-412 (1976). The (H^+ +K^+)-ATPase assay medium consisted of 20 mM Mes-Tris (pH 6.0), 5 mM magnesium chloride, 25 mM sucrose, and 4 mM Tris-ATP with or without 20 mM potassium chloride in a total volume of 2 ml. Microsomal suspensions (20 to 60 mcl, containing about 25 mcg protein) were added to the assay medium, without Tris-ATP, and then preincubated with a test compound for thirty minutes at 37°. The assay was initiated by adding Tris-ATP and the mixture was incubated another thirty minutes at 37°. A 200-mcl aliquot of the assay mixture was then added to 1.4 ml of a solution consisting of 0.1M sodium acetate (pH 4.0) and 10 % sodium dodecylsulfate, followed by the addition of 200 mcl each of 1% ammonium molybdate and 1% ascorbic acid. At least fifteen minutes later, the optical absorbance at 870 nm (which was proportional to inorganic phosphate concentration up to 100 nmoles per tube, as determined by a standard curve) was obtained. Enzyme activity was linear with incubation time.
(H^+ +K^+)-ATPase activity is represented by the difference between the measured activities in the presence of potassium ion (K^+ -stimulated) and in the absence of potassium ion (basal). […] If the IC50 for a test compound could not be determined for the concentration range tested, percent inhibition of (H^+ +K^+)-ATPase was obtained for the compound at 0.1 mM.

| IC50 | Structure (SMILES) |
| --- | --- |
| 2.7 µM | [O-][S+](Cc1cccn2ccnc12)c1nc2ccccc2[nH]1 (centres unmarked) [Example 3, 2-[(imidazo[1,2-a]pyridin-8-ylmethyl)sulfinyl]-1H-benzimidazole 1/8 hydrate] |
| 6.7 µM | Cc1cn2cccc(C[S+]([O-])c3nc4ccccc4[nH]3)c2n1 (centres unmarked) [Example 5] |
| 8.5 µM | COc1ccc2[nH]c([S+]([O-])Cc3cccn4ccnc34)nc2c1 (centres unmarked) [Example 7, 2-[(imidazo[1,2-a]pyridin-8-ylmethyl)sulfinyl]-5-methoxy-1H-benzimidazole] |
| 9.2 µM | CCOc1ccc2[nH]c([S+]([O-])Cc3cccn4ccnc34)nc2c1 (centres unmarked) [Example 9, 5-ethoxy-2-[(imidazo[1,2-a]pyridin-8-ylmethyl)sulfinyl]-1H-benzimidazole] |
| 6.2 µM | Cc1cccc2[nH]c([S+]([O-])Cc3cccn4ccnc34)nc12 (centres unmarked) [Example 11, 2-[(imidazo[1,2-a]pyridin-8-ylmethyl)sulfinyl]-4-methyl-1H-benzimidazole] |
| 3.1 µM | Cc1ccc2[nH]c([S+]([O-])Cc3cccn4ccnc34)nc2c1 (centres unmarked) [Example 13, 2-[(imidazo[1,2-a]pyridin-8-ylmethyl)sulfinyl]-5-methyl-1H-benzimidazole] |
| 4.8 µM | Cc1cc2nc([S+]([O-])Cc3cccn4ccnc34)[nH]c2cc1C (centres unmarked) [Example 15, 2-[(imidazo[1,2-a]pyridin-8-ylmethyl)sulfinyl]-5,6-dimethyl-1H-benzimidazole hydrate] |
| 69 µM | COc1cc2nc([S+]([O-])Cc3cccn4ccnc34)[nH]c2cc1OC (centres unmarked) [Example 17, 2-[(imidazo[1,2-a]pyridin-8-ylmethyl)sulfinyl]-5,6-dimethoxy-1H-benzimidazole] |
| 5 µM | [O-][S+](Cc1cccn2ccnc12)c1nc2cc(Cl)ccc2[nH]1 (centres unmarked) [Example 19, 5-chloro-2-[(imidazo[1,2-a]pyridin-8-ylmethyl)sulfinyl]-1H-benzimidazole] |
| 3.4 µM | [O-][S+](Cc1cccn2ccnc12)c1nc2cc(C(F)(F)F)ccc2[nH]1 (centres unmarked) [Example 21, 2-[(imidazo[1,2-a]pyridin-8-ylmethyl)sulfinyl]-5-(trifluoromethyl)-1H-benzimidazole] |
| 6.2 µM | Cc1nc2c(C[S+]([O-])c3nc4ccccc4[nH]3)cccn2c1C (centres unmarked) [Example 23, 2-[[(2,3-dimethylimidazo[1,2-a]pyridin-8-yl)methyl]sulfinyl]-1H-benzimidazole] |
| 4 µM | Cc1cnc2c(C[S+]([O-])c3nc4ccccc4[nH]3)cccn12 (centres unmarked) [Example 25, 2-[[(3-methylimidazo[1,2-a]pyridin-8-yl)methyl]sulfinyl]-1H-benzimidazole hemihydrate1/2CH2 Cl2] |
| > 100 µM | [O-][S+](Cc1cccn2cc(-c3ccccc3)nc12)c1nc2ccccc2[nH]1 (centres unmarked) [Example 28, 2-[[(2-phenylimidazo[1,2-a]pyridin-8-yl)methyl]sulfinyl]-1H-benzimidazole 1/4 hydrate] |
| 9.1 µM | [O-][S+](Cc1cccn2c(-c3ccccc3)cnc12)c1nc2ccccc2[nH]1 (centres unmarked) [Example 30, 2-[[(3-phenylimidazo[1,2-a]pyridin-8-yl)methyl]sulfinyl]-1H-benzimidazole hemihydrate] |
| 17.5 µM | O=[N+]([O-])c1ccc(-c2cnc3c(C[S+]([O-])c4nc5ccccc5[nH]4)cccn23)cc1 (centres unmarked) [Example 33, 2-[[[3-(4-nitrophenyl)imidazo[1,2-a]pyridin-8-yl]methyl]sulfinyl]-1H-benzimidazole 1/4 hydrate] |
| 6.9 µM | [O-][S+](Cc1cccn2c(-c3cccc(C(F)(F)F)c3)cnc12)c1nc2ccccc2[nH]1 (centres unmarked) [Example 36, 2-[[[3-[3-(trifluoromethyl)phenyl]imidazo[1,2-a]pyridin-8-yl]methyl]sulfinyl]-1H-benzimidazole] |
| 7.2 µM | Cc1ccc2[nH]c([S+]([O-])Cc3cccn4c(-c5cccc(C(F)(F)F)c5)cnc34)nc2c1 (centres unmarked) [Example 39, 5-methyl-2-[[[3-[3-(trifluoromethyl)phenyl]imidazo[1,2-a]pyridin-8-yl]methyl]sulfinyl]-1H-benzimidazole] |
| 15.2 µM | [O-][S+](Cc1cccn2c(-c3cccc(C(F)(F)F)c3)cnc12)c1nc2cc(Cl)ccc2[nH]1 (centres unmarked) [Example 42, 5-chloro-2-[[[3-[3-(trifluoromethyl)phenyl]imidazo[1,2-a]pyridin-8-yl]methyl]sulfinyl]-1H-benzimidazole] |
| 7.4 µM | [O-][S+](Cc1cccn2c(-c3ccc(C(F)(F)F)cc3)cnc12)c1nc2ccccc2[nH]1 (centres unmarked) [Example 45, 2-[[[3-[4-(trifluoromethyl)phenyl]imidazo[1,2-a]pyridin-8-yl]methyl]sulfinyl]-1H-benzimidazole] |
| 13 µM | [O-][S+](Cc1cccn2c(-c3ccc(C(F)(F)F)cc3)cnc12)c1nc2cc(Cl)ccc2[nH]1 (centres unmarked) [Example 47, 5-chloro-2-[[[3-[4-(trifluoromethyl)phenyl]imidazo[1,2-a]pyridin-8-yl]methyl]sulfinyl]-1H-benzimidazole] |
| 7.8 µM | COC(=O)c1ccc(-c2cnc3c(C[S+]([O-])c4nc5ccccc5[nH]4)cccn23)cc1 (centres unmarked) [Example 49, methyl 4-[8-[(1H-benzimidazol-2-ylsulfinyl)methyl]imidazo[1,2-a]pyridin-3-yl]benzoate hydrate] |
| 5.5 µM | [O-][S+](Cc1cccn2c(-c3ccc(Cl)cc3)cnc12)c1nc2ccccc2[nH]1 (centres unmarked) [Example 52, 2-[[[3-(4-chlorophenyl)imidazo[1,2-a]pyridin-8-yl]methyl]sulfinyl]-1H-benzimidazole] |
| 3.2 µM | Cc1ccc(-c2cnc3c(C[S+]([O-])c4nc5ccccc5[nH]4)cccn23)cc1 (centres unmarked) [Example 54, 2-[[[3-(4-methylphenyl)imidazo[1,2-a]pyridin-8-yl]methyl]sulfinyl]-1H-benzimidazole] |
| > 100 µM | [O-][S+](Cc1cccc2nccn12)c1nc2ccccc2[nH]1 (centres unmarked) [Example 56, 2-[(imidazo[1,2-a]pyridin-5-ylmethyl)sulfinyl]-1H-benzimidazole] |
